From US9751886B2, “4-amino-6-phenyl-6,7-dihydro[1,2,3]triazolo[1,5-A]pyrazine derivatives as inhibitors of beta-secretase (BACE)” (Janssen Pharmaceutica NV, priority 2013, dated 2017) come the findings set out here.

The structures appear in SMILES notation.

In assay [1] the target is recombinant BACE1 protein (Homo sapiens (Human), UniProt P56817). Kind of assay: BACE1 Biochemical FRET based assay - Method 2. To be noted: 0.04 μg/ml BACE1, 20 μM substrate, 450 min, pH 5.0. The source says:
(§1) This assay is a Fluorescence Resonance Energy Transfer Assay (FRET) based assay. The substrate for this assay is an APP derived 13 amino acids peptide that contains the ‘Swedish’ Lys-Met/Asn-Leu mutation of the amyloid precursor protein (APP) beta-secretase cleavage site. This substrate also contains two fluorophores: (7-methoxycoumarin-4-yl) acetic acid (Mca) is a fluorescent donor with excitation wavelength at 320 nm and emission at 405 nm and 2,4-Dinitrophenyl (Dnp) is a proprietary quencher acceptor. […] Upon cleavage by BACE1, the fluorophore Mca is separated from the quenching group Dnp, restoring the full fluorescence yield of the donor. The increase in fluorescence is linearly related to the rate of proteolysis.
Briefly in a 384-well format recombinant BACE1 protein in a final concentration of 0.04 μg/ml is incubated for 450 minutes at room temperature with 20 μM substrate in incubation buffer (50 mM Citrate buffer pH 5.0, 0.05% PEG) in the presence of compound or DMSO. Next the amount of proteolysis is directly measured by fluorescence measurement (excitation at 320 nm and emission at 405 nm) at different incubation times (0, 30, 60, 90, 120 and 450 min). For every experiment a time curve (every 30 min between 0 min and 120 min) is used to determine the time where we find the lowest basal signal of the high control. The signal at this time (Tx) is used to subtract from the signal at 450 min. Results are expressed in RFU, as difference between T450 and Tx.

Assay [2] concerns Abeta 1-42 secreted by human neuroblastoma SKNBE2 cells expressing wild type hAPP695. Kind of assay: BACE1 cellular αLisa assay in SKNBE2 cells, Abeta 1-42. Format: cell-based. Conditions: 18 hours incubation; for IC50: Homo sapiens, read-out: Cellular αLisa assay in SKNBE2 cells Abeta 42 pIC50 (converted). The method, then: (§2) In two αLisa assays the levels of Abeta total and Abeta 1-42 produced and secreted into the medium of human neuroblastoma SKNBE2 cells are quantified. The assay is based on the human neuroblastoma SKNBE2 expressing the wild type Amyloid Precursor Protein (hAPP695). The compounds are diluted and added to these cells, incubated for 18 hours and then measurements of Abeta 1-42 and Abeta total are taken. Abeta total and Abeta 1-42 are measured by sandwich αLisa. αLisa is a sandwich assay using biotinylated antibody AbN/25 attached to streptavidin coated beads and antibody Ab4G8 or cAb42/26 conjugated acceptor beads for the detection of Abeta total and Abeta 1-42 respectively. In the presence of Abeta total or Abeta 1-42, the beads come into close proximity. The excitation of the donor beads provokes the release of singlet oxygen molecules that trigger a cascade of energy transfer in the acceptor beads, resulting in light emission.

For assay [3], the system named is Abeta total secreted by human neuroblastoma SKNBE2 cells expressing wild type hAPP695. Description: BACE1 cellular αLisa assay in SKNBE2 cells, Abeta total. Conditions: 18 hours incubation; for IC50: Homo sapiens, read-out: Cellular αLisa assay in SKNBE2 cells Abetatotal pIC50 (converted). It counts as cell-based. The protocol: as §2
For assay [4], the target named is recombinant BACE2 protein (Homo sapiens (Human), UniProt Q9Y5Z0). Kind of assay: BACE2 Biochemical FRET based assay. Conditions: 0.4 μg/ml BACE2, 10 μM substrate, 450 min, pH 5.0.
Excerpt: as §1, with “assay” for “assay is an APP derived 13 amino acids peptide that”, “the beta-secretase,” for “BACE1,”
Briefly in a 384-well format recombinant BACE2 protein in a final concentration of 0.4 μg/ml is incubated for 450 minutes at room temperature with 10 μM substrate in incubation buffer (50 mM Citrate buffer pH 5.0, 0.05% PEG, no DMSO) in the absence or presence of compound. Next the amount of proteolysis is directly measured by fluorescence measurement at T=0 and T=450 (excitation at 320 nm and emission at 405 nm). Results are expressed in RFU (Relative Fluorescence Units), as difference between T450 and TO.

The subject of assay [5] is brain levels of soluble Aβ42, Aβ40. Description: In vivo Aβ lowering in non-transgenic rodents (MSD electrochemiluminescence). The arrangement: species or system mouse. Conditions: dose 10, s.c., untreated control = 100. The text has this:
To determine whether acute administration of an Aβ lowering agent would reduce Aβ levels in vivo, non-transgenic rodents, e.g. mice or rats were used. Animals treated with the Aβ lowering agent were examined and compared to those untreated or treated with vehicle and brain levels of soluble Aβ42, Aβ40, Aβ38, and Aβ37 were quantitated by Meso Scale Discovery's (MSD) electrochemiluminescence detection technology. Treatment periods varied from hours (h) to days and were adjusted based on the results of the Aβ lowering once a time course of onset of effect could be established.
A typical protocol for measuring Aβ lowering in vivo is shown but it is only one of many variations that could be used to optimize the levels of detectable A. For example, Aβ lowering compounds were formulated in 20% of Captisol® (a sulfo-butyl ether of β-cyclodextrin) in water or 20% hydroxypropyl β cyclodextrin. The Aβ lowering agents were administered as a single oral dose or by any acceptable route of administration to overnight fasted animals. […]
Blood was collected by decapitation and exsanguinations in EDTA-treated collection tubes. Blood was centrifuged at 1900 g for 10 minutes (min) at 4° C. and the plasma recovered and flash frozen for later analysis. The brain was removed from the cranium and hindbrain. The cerebellum was removed and the left and right hemisphere were separated. The left hemisphere was stored at −18° C. for quantitative analysis of test compound levels. The right hemisphere was rinsed with phosphate-buffered saline (PBS) buffer and immediately frozen on dry ice and stored at −80° C. until homogenization for biochemical assays.
Mouse brains from non-transgenic animals were resuspended in 8 volumes of 0.4% DEA (diethylamine)/50 mM NaCl containing protease inhibitors (Roche-11873580001 or 04693159001) per gram of tissue, e.g. for 0.158 g brain, add 1.264 ml of 0.4% DEA. All samples were homogenized in the FastPrep-24 system (MP Biomedicals) using lysing matrix D (MPBio #6913-100) at 6 m/s for 20 seconds. Homogenates were centrifuged at 20800×g for 5 min and supernatants collected. Supernatants were centrifuged at 221.300×g for 50 min. The resulting high speed supernatants were then transferred to fresh eppendorf tubes. Nine parts of supernatant were neutralized with 1 part 0.5 M Tris-HCl pH 6.8 and used to quantify Aβ.
To quantify the amount of Aβ42, Aβ40, Aβ38, and Aβ37 in the soluble fraction of the brain homogenates, simultaneous specific detection of Aβ42, Aβ40, Aβ38, and Aβ37 was performed using MSD's electro-chemiluminescence multiplex detection technology. In this assay purified monoclonal antibodies specific for Abeta37 (JRD/Aβ37/3), Abeta38 (J&JPRD/Aβ38/5), Abeta40 (JRF/cAβ40/28), and Abeta42 (JRF/cAβ(342/26) were coated on MSD 4-plex plates. Briefly, the standards (a dilution of synthetic Aβ42, Aβ40, Aβ38, and Aβ37) were prepared in 1.5 ml Eppendorf tube in Ultraculture, with final concentrations ranging from 10000 to 0.3 pg/m. The samples and standards were co-incubated with Sulfo-tag labelled JRF/rAβ/2 antibody to the N-terminus of Aβ as detector antibody. 50 μl of conjugate/sample or conjugate/standards mixtures were then added to the antibody-coated plate. The plate was allowed to incubate overnight at 4° C. in order to allow formation of the antibody-amyloid complex. Following this incubation and subsequent wash steps the assay was finished by adding read buffer according to the manufacturer's instructions (Meso Scale Discovery, Gaitherburg, Md.).
The SULFO-TAG emits light upon electrochemical stimulation initiated at the electrode. MSD Sector instrument SI6000 was used for signal read-out.
The results are shown in Table 8 (value for untreated animals as control (Ctrl) was set at 100): […]

Chain of recombinant BACE2 protein (Q9Y5Z0 63-518): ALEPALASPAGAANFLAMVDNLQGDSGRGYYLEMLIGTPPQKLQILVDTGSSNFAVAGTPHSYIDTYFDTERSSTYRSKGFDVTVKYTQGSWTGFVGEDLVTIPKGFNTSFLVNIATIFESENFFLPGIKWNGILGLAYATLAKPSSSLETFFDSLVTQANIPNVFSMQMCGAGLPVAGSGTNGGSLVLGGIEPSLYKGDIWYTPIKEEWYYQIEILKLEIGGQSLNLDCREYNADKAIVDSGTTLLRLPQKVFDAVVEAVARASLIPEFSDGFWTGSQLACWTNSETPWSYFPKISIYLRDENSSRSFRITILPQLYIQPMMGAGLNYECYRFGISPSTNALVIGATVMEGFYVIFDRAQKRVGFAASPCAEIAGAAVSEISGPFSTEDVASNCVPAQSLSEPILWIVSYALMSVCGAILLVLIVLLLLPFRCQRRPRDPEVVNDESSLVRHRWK
Chain of recombinant BACE1 protein (P56817 46-501): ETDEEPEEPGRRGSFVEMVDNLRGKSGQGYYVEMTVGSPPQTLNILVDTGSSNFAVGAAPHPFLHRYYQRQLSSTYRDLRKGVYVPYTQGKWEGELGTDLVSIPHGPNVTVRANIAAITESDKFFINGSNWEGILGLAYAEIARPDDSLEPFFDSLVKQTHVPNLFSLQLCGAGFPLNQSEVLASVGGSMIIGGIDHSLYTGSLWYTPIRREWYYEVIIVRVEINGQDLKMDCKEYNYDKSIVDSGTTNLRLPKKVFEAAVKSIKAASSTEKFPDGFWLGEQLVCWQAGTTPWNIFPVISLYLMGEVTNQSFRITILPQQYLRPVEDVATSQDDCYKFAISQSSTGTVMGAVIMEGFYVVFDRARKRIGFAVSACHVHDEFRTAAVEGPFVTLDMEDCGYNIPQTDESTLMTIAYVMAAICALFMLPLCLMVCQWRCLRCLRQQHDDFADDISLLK

Take `NC1=NC(CF)(c2cc(NC(=O)c3ccc(F)cn3)ccc2F)Cn2nncc21` (racemic) [Compound 9, (rac)-N-{3-[4-amino-6-(fluoromethyl)-6,7-dihydro[1,2,3]triazolo[1,5-a]pyrazin-6-yl]-4-fluorophenyl}-5-fluoropyridine-2-carboxamide]: the IC50 in assay [1] (read-out: BACE1 Biochemical FRET based assay - Method 2 pIC50 (converted)) is 8.32 nM; in assay [2] it was 57.5 nM; in assay [3], 56.2 nM; in assay [4] (read-out: BACE2 Biochemical FRET based assay pIC50 (converted)) it was 8.32 nM.
As for `C[C@@]1(c2cc(NC(=O)c3nn(C(F)F)cc3Cl)ccc2F)Cn2nncc2C(N)=N1` [Compound 5, N-{3-[(6R)-4-Amino-6-methyl-6,7-dihydro[1,2,3]triazolo[1,5-a]pyrazin-6-yl]-4-fluorophenyl}-4-chloro-1-(difluoromethyl)-1H-pyrazole-3-carboxamide], the “BACE1 Biochemical FRET based assay - Method 2 pIC50” value (from here on “BACE1 Biochemical FRET based assay”) in assay [1] is 8.72. Besides, the values for the IC50 in assay [2] and in assay [3] were 3.72 nM and 3.09 nM, respectively. Moreover, the “BACE2 Biochemical FRET based assay pIC50” value in assay [4] was 8.73.
Regarding `C[C@@]1(c2cc(NC(=O)c3cnc(OCF)cn3)ccc2F)Cn2nncc2C(N)=N1` [Compound 7, N-{3-[(6R)-4-amino-6-methyl-6,7-dihydro[1,2,3]triazolo[1,5-a]pyrazin-6-yl]-4-fluoropheny}-5-(fluoromethoxy)pyrazine-2-carboxamide], the “BACE1 Biochemical FRET based assay” value in assay [1] is 8.52. Besides, in assay [2], the “Cellular αLisa assay in SKNBE2 cells Abeta 42 pIC50” value amounted to 8.87. Further, in assay [3], the “Cellular αLisa assay in SKNBE2 cells Abetatotal pIC50” value is given as 8.86. Besides, in assay [4], the “BACE2 Biochemical FRET based assay pIC50” value amounted to 7.78.
Turning to `C[C@@]1(c2cc(NC(=O)c3cnc(OCC(F)(F)F)cn3)ccc2F)Cn2nncc2C(N)=N1` [Compound 6, N-{3-[(6R)-4-amino-6-methyl-6,7-dihydro[1,2,3]triazolo[1,5-a]pyrazin-6-yl]-4-fluoropheny}-5-(2,2,2-trifluoroethoxy)pyrazine-2-carboxamide], the “BACE1 Biochemical FRET based assay” value in assay [1] amounted to 8.51. Besides, the “Cellular αLisa assay in SKNBE2 cells Abeta 42 pIC50” value in assay [2] is on record as 8.28. The “Cellular αLisa assay in SKNBE2 cells Abetatotal pIC50” value in assay [3] is 8.32. Further, the “BACE2 Biochemical FRET based assay pIC50” value in assay [4] is 7.22.
With `C[C@@]1(c2cc(NC(=O)c3ccc(C#N)cn3)ccc2F)Cn2nncc2C(N)=N1` [Compound 2, N-{3-[(6R)-4-Amino-6-methyl-6,7-dihydro[1,2,3]triazolo[1,5-a]pyrazin-6-yl]-4-fluorophenyl}-5-cyanopyridine-2-carboxamide], the IC50 in assay [2] was 1.1 nM; in assay [3], 1.05 nM. The “Aβ40 (% vs Ctrl)_Mean” value in assay [5] (2 h after administration) is 44 % vs Ctrl; in assay [5] (4 h after administration), 61 % vs Ctrl. Also, the “Aβ42 (% vs Ctrl)_Mean” value amounted to 44 % vs Ctrl in assay [5] (2 h after administration) and 50 % vs Ctrl in assay [5] (4 h after administration).
Take `NC1=N[C@@](CF)(c2cc(NC(=O)c3ccc(F)cn3)ccc2F)Cn2nncc21` [Compound 11, N-{3-[(6S)-4-amino-6-(fluoromethyl)-6,7-dihydro[1,2,3]triazolo[1,5-a]pyrazin-6-yl]-4-fluorophenyl}-5-fluoropyridine-2-carboxamide]: the “BACE1 Biochemical FRET based assay” value in assay [1] is reported as 6.12. In addition, the IC50 in assay [2] was 4170 nM; in assay [3] it was 4470 nM. Besides, the “BACE2 Biochemical FRET based assay pIC50” value in assay [4] came out at 6.3.
For the molecule `C[C@@]1(c2cc(NC(=O)c3ccc(F)cn3)cc(F)c2F)Cn2nncc2C(N)=N1` [Compound 8, N-{3-[(6R)-4-Amino-6-methyl-6,7-dihydro[1,2,3]triazolo[1,5-a]pyrazin-6-yl]-4,5-difluorophenyl}-5-fluoropyridine-2-carboxamide], the “BACE1 Biochemical FRET based assay” value in assay [1] was 8.36. The IC50 in assay [2] was 4.68 nM; in assay [3], 4.47 nM. In addition, the “Aβ40 (% vs Ctrl)_Mean” value in assay [5] (2 h after administration) is recorded as 56 % vs Ctrl; in assay [5] (4 h after administration) it was 136 % vs Ctrl. Also, the “Aβ42 (% vs Ctrl)_Mean” value in assay [5] (2 h after administration) was 56 % vs Ctrl; in assay [5] (4 h after administration), 105 % vs Ctrl.
